Source: PubChem BioAssay (NCI)
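48-hour exposure; five concentrations; linearly interpolated endpoints. GI50 is the concentration that inhibits growth by half. At the TGI there is no net growth.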

How the values were obtained:
Assay in all cases: NCI-60 cell line screen, 48 h
[1] = test system: 786-0 renal
[2] = test system: A498 renal
[3] = test system: A549 NSCLC
[4] = test system: ACHN renal
[5] = test system: BT-549 breast
[6] = test system: CAKI-1 renal
[7] = test system: CCRF-CEM leukemia
[8] = test system: COLO 205 colon
[9] = test system: DU-145 prostate
[10] = test system: EKVX NSCLC
[11] = test system: HCC-2998 colon
[12] = test system: HCT-116 colon
[13] = test system: HCT-15 colon
[14] = test system: HL-60(TB) leukemia
[15] = test system: HOP-62 NSCLC
[16] = test system: HOP-92 NSCLC
[17] = test system: HS 578T breast
[18] = test system: HT29 colon
[19] = test system: IGROV1 ovarian
[20] = test system: K-562 leukemia
[21] = test system: KM12 colon
[22] = test system: LOX IMVI melanoma
[23] = test system: M14 melanoma
[24] = test system: MALME-3M melanoma
[25] = test system: MCF7 breast
[26] = test system: MDA-MB-231 breast
[27] = test system: MDA-MB-435
[28] = test system: MOLT-4 leukemia
[29] = test system: NCI-H226 lung
[30] = test system: NCI-H23 lung
[31] = test system: NCI-H460 lung
[32] = test system: NCI-H522 lung
[33] = test system: NCI/ADR-RES ovarian
[34] = test system: OVCAR-3 ovarian
[35] = test system: OVCAR-4 ovarian
[36] = test system: OVCAR-5 ovarian
[37] = test system: OVCAR-8 ovarian
[38] = test system: PC-3 prostate
[39] = test system: RPMI-8226 leukemia
[40] = test system: SF-268 CNS
[41] = test system: SF-295 CNS
[42] = test system: SF-539 CNS
[43] = test system: SK-MEL-2 melanoma
[44] = test system: SK-MEL-28 melanoma
[45] = test system: SK-MEL-5 melanoma
[46] = test system: SK-OV-3 ovarian
[47] = test system: SN12C renal
[48] = test system: SNB-19 CNS
[49] = test system: SNB-75 CNS
[50] = test system: SR leukemia
[51] = test system: SW-620 colon
[52] = test system: T-47D breast
[53] = test system: TK-10 renal
[54] = test system: U251 CNS
[55] = test system: UACC-257 melanoma
[56] = test system: UACC-62 melanoma
[57] = test system: UO-31 renal

Q: Which results are given for `COc1ccc(C2=CC(c3ccc(OC)c(OC)c3)c3c(c4ccccc4oc3=O)O2)cc1OC` (centres undefined)?
A: GI50 [1]: 1.15 µM; TGI [1]: 11.7 µM; GI50 [2]: 0.892 µM; TGI [2]: > 20.2 µM; GI50 [3]: 3.07 µM; TGI [3]: > 100 µM; GI50 [4]: 3.03 µM; TGI [4]: > 100 µM; GI50 [5]: 92.6 µM; TGI [5]: > 100 µM; GI50 [6]: 1.67 µM; TGI [6]: > 100 µM; GI50 [7]: 2.36 µM; TGI [7]: > 100 µM; GI50 [8]: 2.04 µM; TGI [8]: > 24.2 µM; GI50 [9]: 1.73 µM; TGI [9]: > 30.7 µM; GI50 [10]: 1.52 µM; TGI [10]: > 100 µM; GI50 [11]: 1.37 µM; TGI [11]: 4.97 µM; GI50 [12]: 1.58 µM; TGI [12]: > 59.6 µM; GI50 [13]: 1.58 µM; TGI [13]: > 100 µM; GI50 [14]: 2.32 µM; GI50 [15]: 2.2 µM; TGI [15]: > 100 µM; GI50 [16]: 4.8 µM; TGI [16]: > 100 µM; GI50 [17]: 0.957 µM; TGI [17]: > 26.9 µM; GI50 [18]: 0.822 µM; TGI [18]: 31 µM; GI50 [19]: 2.47 µM; TGI [19]: > 31.2 µM; GI50 [20]: 1.02 µM; TGI [20]: > 100 µM; GI50 [21]: 1.25 µM; TGI [21]: > 100 µM; GI50 [22]: 4.22 µM; TGI [22]: > 100 µM; GI50 [23]: 1.27 µM; TGI [23]: > 31.3 µM; GI50 [24]: > 100 µM; TGI [24]: > 100 µM; GI50 [25]: 0.424 µM; TGI [25]: > 100 µM; GI50 [26]: 3.46 µM; TGI [26]: > 51.4 µM; GI50 [27]: 0.244 µM; TGI [27]: 0.831 µM; GI50 [28]: 4.05 µM; TGI [28]: > 100 µM; GI50 [29]: > 21.1 µM; TGI [29]: > 100 µM; GI50 [30]: 4.91 µM; TGI [30]: > 100 µM; GI50 [31]: 1.9 µM; TGI [31]: > 100 µM; GI50 [32]: 1.44 µM; GI50 [33]: 0.545 µM; GI50 [34]: 0.313 µM; GI50 [35]: 3.85 µM; TGI [35]: > 100 µM; GI50 [36]: 6.33 µM; TGI [36]: > 100 µM; GI50 [37]: 4.9 µM; TGI [37]: > 100 µM; GI50 [38]: 0.745 µM; TGI [38]: > 100 µM; GI50 [39]: 1.32 µM; TGI [39]: 16.7 µM; GI50 [40]: 3.46 µM; TGI [40]: > 100 µM; GI50 [41]: 0.442 µM; TGI [41]: > 100 µM; GI50 [42]: 1.02 µM; TGI [42]: 4.43 µM; GI50 [43]: 12.2 µM; TGI [43]: > 100 µM; TGI [44]: > 100 µM; GI50 [45]: 0.363 µM; TGI [45]: > 25.4 µM; GI50 [46]: 2.68 µM; TGI [46]: > 100 µM; GI50 [47]: 4.39 µM; TGI [47]: > 100 µM; GI50 [48]: 1.99 µM; TGI [48]: > 77.3 µM; GI50 [49]: 0.341 µM; TGI [49]: 2.17 µM; GI50 [50]: 0.498 µM; TGI [50]: > 100 µM; GI50 [51]: 1.19 µM; TGI [51]: > 100 µM; GI50 [52]: 3.66 µM; TGI [52]: > 100 µM; GI50 [53]: > 24.9 µM; TGI [53]: > 100 µM; GI50 [54]: 3.19 µM; TGI [54]: > 100 µM; GI50 [55]: 1.13 µM; TGI [55]: > 100 µM; GI50 [56]: 0.473 µM; TGI [56]: > 100 µM; GI50 [57]: 1.58 µM; TGI [57]: > 100 µM
